{"source": "patent US7060435B1", "about": "“Genotyping cytochrome expression” (Janssen Pharmaceutica, priority 1998, dated 2006)", "origin": "cited, not measured here", "biological_target": "CYP3A4 and CYP3A5 (Homo sapiens, UniProt P08684)", "sequence (P08684 2-503)": "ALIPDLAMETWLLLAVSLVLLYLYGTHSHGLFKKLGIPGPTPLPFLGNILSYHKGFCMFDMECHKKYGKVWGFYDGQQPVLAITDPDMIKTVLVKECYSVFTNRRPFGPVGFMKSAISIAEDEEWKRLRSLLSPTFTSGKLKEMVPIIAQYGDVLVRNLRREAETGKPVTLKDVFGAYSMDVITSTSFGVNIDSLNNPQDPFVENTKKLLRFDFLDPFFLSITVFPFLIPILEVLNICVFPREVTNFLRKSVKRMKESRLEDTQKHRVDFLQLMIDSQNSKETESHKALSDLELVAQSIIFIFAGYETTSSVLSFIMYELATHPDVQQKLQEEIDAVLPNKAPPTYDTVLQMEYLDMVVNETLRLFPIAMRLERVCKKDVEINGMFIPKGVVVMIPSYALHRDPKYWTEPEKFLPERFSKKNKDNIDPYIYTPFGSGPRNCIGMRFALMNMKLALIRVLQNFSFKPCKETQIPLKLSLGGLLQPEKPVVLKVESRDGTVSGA", "conditions": "samples containing only CYP3A4", "data": [{"smiles": "Cc1ncc2n1-c1ccc(Cl)cc1C(c1ccccc1F)=NC2", "note": "[midazolam]", "values": [{"measurement": "1-OHM/4-OHM ratio", "result": "< 4"}]}]}
